Measurements taken from article PMC4355058 (Analytical biochemistry, 2014).
Structures can show the parent of a compound that is named as a salt. Where two headings read alike, the source gives them in different places.

Assays:
A2a-8M receptor = A2a-8M receptor (Homo sapiens, UniProt P29274, A54L/K122A/L202A/L235A/N154A/R107A/S277A/T88A/V239A); experiment: Isothermal chemical denaturation
WT A2a receptor = conditions: cited from earlier work
A2a-8M [1] = target: A2a-8M (Homo sapiens, UniProt P29274, A54L/K122A/L202A/L235A/R107A/S277A/T88A/V239A); experiment: SPR analysis of small molecule binding
A2a-8M (Homo sapiens, UniProt P29274, A54L/K122A/L202A/L235A/R107A/S277A/T88A/V239A), sequence (P29274 1-317 A54L/T88A/R107A/K122A/L202A/L235A/V239A/S277A): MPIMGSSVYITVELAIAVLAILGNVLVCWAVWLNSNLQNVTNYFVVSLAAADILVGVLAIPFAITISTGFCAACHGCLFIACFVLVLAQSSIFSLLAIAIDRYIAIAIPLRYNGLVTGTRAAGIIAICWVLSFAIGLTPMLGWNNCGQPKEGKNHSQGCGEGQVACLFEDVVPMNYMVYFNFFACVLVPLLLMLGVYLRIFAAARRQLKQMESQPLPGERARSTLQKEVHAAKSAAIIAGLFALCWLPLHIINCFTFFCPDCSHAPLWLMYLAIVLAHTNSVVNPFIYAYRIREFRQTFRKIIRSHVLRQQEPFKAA

A2aR = conditions: read-out: Kd, SPR study at 10°C; cited from earlier work
A2a-8M [2] = experiment: SPR analysis of small molecule binding; conditions: read-out: SPR Kd
[3] = [L] = 21 μM, 25°C, 338 nm, apo 1.37
[4] = [L] = 21 μM, 25°C, 338 nm, apo 2.90
[5] = [L] = 21 μM, 25°C, protein […], 338 nm, apo 3.96
[6] = [L] = 2 μM, 25°C, 338 nm (SCH58261 at 316 nm), apo 2.90 (338 nm), 2.88 (316 nm)
[7] = [L] = 2 μM, 25°C, 338 nm (SCH58261 at 316 nm), apo 1.37

A2a-8M receptor, sequence (P29274 1-316 A54L/T88A/R107A/K122A/N154A/L202A/L235A/V239A/S277A): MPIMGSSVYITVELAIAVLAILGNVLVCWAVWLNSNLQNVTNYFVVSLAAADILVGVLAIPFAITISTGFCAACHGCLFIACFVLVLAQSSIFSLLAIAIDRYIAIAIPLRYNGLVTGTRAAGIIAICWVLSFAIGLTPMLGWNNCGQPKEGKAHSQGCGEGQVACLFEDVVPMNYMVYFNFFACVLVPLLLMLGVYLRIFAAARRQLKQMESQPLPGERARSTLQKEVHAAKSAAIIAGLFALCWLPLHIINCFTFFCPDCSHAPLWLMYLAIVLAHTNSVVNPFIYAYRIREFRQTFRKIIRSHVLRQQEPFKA

Compound	m (A2a-8M receptor; [3]) [kcal/mol×M]	C½ (midpoint of denaturation curve) (A2a-8M receptor; [4]) [M GuHCl]	ΔG (Gibbs energy of protein stability in presence of ligand) (A2a-8M receptor; [5]) [kcal/mol]	C½ (midpoint of denaturation curve) (A2a-8M receptor; [6]) [M GuHCl]	other results
CCOc1nc2c(N)ncnc2n1CC [ANR94]	1.65	3.53	5.82	–	–
CCNC(=O)[C@H]1O[C@@H](n2cnc3c(N)nc(NCCc4ccc(CCC(=O)O)cc4)nc32)[C@H](O)[C@@H]1O [CGS21680]	–	–	–	–	binding affinity (WT A2a receptor): > 10 µM
Cn1c(=O)c2c(ncn2C)n(C)c1=O [Caffeine]	–	–	–	3.28	–
N=C(N)NC(=O)Cc1c(Cl)cccc1Cl [Guanfacine HCl]	1.37	2.25	3.08	–	–
CCCCC#Cc1nc(NC)c2ncn([C@@H]3O[C@H](CO)[C@@H](O)[C@H]3O)c2n1 [Hemado]	1.77	2.59	4.59	–	–
N#Cc1c(N)nc(SCc2ncc[nH]2)c(C#N)c1-c1ccc(O)cc1 [LUF5834]	–	–	–	3.18	m (A2a-8M receptor; [7]): 1.90 kcal/mol×M
CCO/C(O)=C1\C(C)=NC(c2ccccc2)=C(C(=O)OCc2ccc([N+](=O)[O-])cc2)C1C#Cc1ccccc1 (stereo not shown) [MRS1334]	–	–	–	3.20	Kd (A2a-8M [1]): 5.9 µM; Kd (A2a-8M receptor): 5.5 µM; m (A2a-8M receptor; [7]): 1.30 kcal/mol×M
Nc1nc(SCCc2ccc(S(=O)(=O)O)cc2)nc2c1ncn2[C@@H]1O[C@H](CO)[C@@H](O)[C@H]1O [PSB0777]	1.56	2.22	3.47	–	–
CCCn1c(=O)[nH]c2nc(-c3ccc(S(=O)(=O)O)cc3)[nH]c2c1=O [PSB1115]	–	–	–	3.82	Kd (A2aR): 0.158 µM; m (A2a-8M receptor; [7]): 1.63 kcal/mol×M
Nc1nc2c(cnn2CCc2ccccc2)c2nc(-c3ccco3)nn12 [SCH58261]	–	–	–	–	Kd (A2a-8M [2]): 0.014 µM; C½ (midpoint of denaturation curve) (A2a-8M receptor): 3.91 M GuHCl; m (A2a-8M receptor): 1.80 kcal/mol×M; ΔG (Gibbs energy of protein stability in presence of ligand) (A2a-8M receptor): 7.01 kcal/mol
COc1ccc(CCCn2ncc3c2nc(N)n2nc(-c4ccco4)nc32)cc1 [SCH442416]	–	–	–	–	binding affinity (WT A2a receptor): 50 pm
CN1CCc2cccc(Cl)c2CC1.Cl [SKF86466 HCl]	1.55	2.18	3.38	–	–
COC1CCN(c2cccc(-c3cc(NC(C)=O)nc(-n4nc(C)cc4C)n3)n2)CC1 [TC-G1004]	–	–	–	–	m (A2a-8M receptor; [L] = 0.4 μM, 25°C, 338 nm (SCH442416 at 316 nm), apo 1.37): 1.42 kcal/mol×M
c1ccc(NCc2ccc(CNc3ccccn3)cc2)nc1 [WZ811]	–	–	–	2.98	m (A2a-8M receptor; [7]): 1.19 kcal/mol×M
Cl.Cl.OCCOCCN1CCN(Cc2cccc(Oc3ccccc3)c2)CC1 [ZK756326]	1.50	3.41	5.11	–	–
